# Experimental data reported in patent US7795290B2 (Genentech, Inc., priority 2004, dated 2010).
# Target: T1, AKT1 (Homo sapiens, UniProt P31749)
# T1 construct: purchased Upstate 14-276
# Experiment: HTS ATP-utilizing enzyme assay, off-chip mobility-shift (Caliper HTS 250)
# Format: biochemical
# Settings: kinase named = inhibitory activity/selectivity; test compound 10 μM; active = greater than three-sigma from mean
# Procedure, shortened: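 AKT1 activity was measured by off-chip mobility shift (Caliper HTS 250) as the ratio of peptide substrate to phosphorylated product. Test compound was at 10 μM, with 2.5 h incubation at 20–22° C. EDTA wells served as 100% control and DMSO wells as 0%. Hits were called at three-sigma limits.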
# T1 sequence (P31749 whole entry): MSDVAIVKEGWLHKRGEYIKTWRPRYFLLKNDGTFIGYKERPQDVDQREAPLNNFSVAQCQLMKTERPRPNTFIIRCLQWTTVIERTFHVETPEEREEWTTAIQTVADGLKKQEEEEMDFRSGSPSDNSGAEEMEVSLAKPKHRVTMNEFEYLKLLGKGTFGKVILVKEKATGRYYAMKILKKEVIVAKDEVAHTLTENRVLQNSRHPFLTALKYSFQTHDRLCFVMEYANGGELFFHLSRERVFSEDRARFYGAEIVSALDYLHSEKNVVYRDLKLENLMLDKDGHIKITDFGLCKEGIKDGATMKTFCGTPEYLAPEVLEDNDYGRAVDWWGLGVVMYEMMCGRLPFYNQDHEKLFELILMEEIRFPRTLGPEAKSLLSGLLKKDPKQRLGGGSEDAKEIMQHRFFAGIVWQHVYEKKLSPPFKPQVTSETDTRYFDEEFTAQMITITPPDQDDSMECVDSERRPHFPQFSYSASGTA
row,SMILES,Activity
1,O=C(CCN(C(=O)c1cccs1)c1nc(-c2cc3ccccc3o2)cs1)N1CCSC1 [N-(4-(benzofuran-2-yl)thiazol-2-yl)-N-(3-oxo-3-(thiazolidin-3-yl)propyl)thiophene-2-carboxamide],AKT1
2,O=C(c1cccs1)N(CCCc1ccccc1)c1nc(-c2cc3ccccc3o2)cs1 [N-(4-(benzofuran-2-yl)thiazol-2-yl)-N-(3-phenylpropyl)thiophene-2-carboxamide],AKT1
3,CC(CO)NC(=O)CCCN(C(=O)c1cccs1)c1nc(-c2cc3ccccc3o2)cs1 (stereo not drawn) [N-(4-(benzofuran-2-yl)thiazol-2-yl)-N-(4-(1-hydroxypropan-2-ylamino)-4-oxobutyl)thiophene-2-carboxamide],AKT1
4,CN(C)CCN1CCN(C(=O)CCCN(C(=O)c2cccs2)c2nc(-c3cc4ccccc4o3)cs2)CC1 [N-(4-(benzofuran-2-yl)thiazol-2-yl)-N-(4-(4-(2-(dimethylamino)ethyl)piperazin-1-yl)-4-oxobutyl)thiophene-2-carboxamide],AKT1
5,CCN(CC)C1CCN(C(=O)CCCN(C(=O)c2cccs2)c2nc(-c3cc4ccccc4o3)cs2)CC1 [N-(4-(benzofuran-2-yl)thiazol-2-yl)-N-(4-(4-(diethylamino)piperidin-1-yl)-4-oxobutyl)thiophene-2-carboxamide],AKT1
6,CS(=O)(=O)c1ccc2c(c1)CCN2C(=O)CCCN(C(=O)c1cccs1)c1nc(-c2cc3ccccc3o2)cs1 [N-(4-(benzofuran-2-yl)thiazol-2-yl)-N-(4-(5-(methylsulfonyl)indolin-1-yl)-4-oxobutyl)thiophene-2-carboxamide],AKT1
7,N#CCCN(CC1CCCO1)C(=O)CCCN(C(=O)c1cccs1)c1nc(-c2cc3ccccc3o2)cs1 (stereo not drawn) [N-(4-(benzofuran-2-yl)thiazol-2-yl)-N-(4-((2-cyanoethyl)((tetrahydrofuran-2-yl)methyl)amino)-4-oxobutyl)thiophene-2-carboxamide],AKT1
8,O=C(c1cccs1)N(CCCCN1CCOCC1)c1nc(-c2cc3ccccc3o2)cs1 [N-(4-(benzofuran-2-yl)thiazol-2-yl)-N-(4-morpholinobutyl)thiophene-2-carboxamide],AKT1
9,O=C(CCCN(C(=O)c1cccs1)c1nc(-c2cc3ccccc3o2)cs1)N1CCCCC1 [N-(4-(benzofuran-2-yl)thiazol-2-yl)-N-(4-oxo-4-(piperidin-1-yl)butyl)thiophene-2-carboxamide],AKT1
10,O=C(CCCN(C(=O)c1cccs1)c1nc(-c2cc3ccccc3o2)cs1)NCc1cccnc1 [N-(4-(benzofuran-2-yl)thiazol-2-yl)-N-(4-oxo-4-(pyridin-3-ylmethylamino)butyl)thiophene-2-carboxamide],AKT1
11,O=C(CCCN(C(=O)c1cccs1)c1nc(-c2cc3ccccc3o2)cs1)N1CCSC1 [N-(4-(benzofuran-2-yl)thiazol-2-yl)-N-(4-oxo-4-(thiazolidin-3-yl)butyl)thiophene-2-carboxamide],AKT1

# Other lines, results leading:
row,Activity,SMILES
1,AKT1,O=C1CN(C(=O)CCN(C(=O)c2cccs2)c2nc(-c3cc4ccccc4o3)cs2)CCN1 [N-(4-(benzofuran-2-yl)thiazol-2-yl)-N-(3-oxo-3-(3-oxopiperazin-1-yl)propyl)thiophene-2-carboxamide]
2,AKT1,O=C(CCN(C(=O)c1cccs1)c1nc(-c2cc3ccccc3o2)cs1)N1CCNCC1 [N-(4-(benzofuran-2-yl)thiazol-2-yl)-N-(3-oxo-3-(piperazin-1-yl)propyl)thiophene-2-carboxamide]
3,AKT1,C[S+]([O-])CCNC(=O)CCCN(C(=O)c1cccs1)c1nc(-c2cc3ccccc3o2)cs1 (stereo not drawn) [N-(4-(benzofuran-2-yl)thiazol-2-yl)-N-(4-(2-(methylsulfinyl)ethylamino)-4-oxobutyl)thiophene-2-carboxamide]
4,AKT1,"CN(C)S(=O)(=O)N1CCN(C(=O)CCCN(C(=O)c2cccs2)c2nc(-c3cc4ccccc4o3)cs2)CC1 [N-(4-(benzofuran-2-yl)thiazol-2-yl)-N-(4-(4-(N,N-dimethylsulfamoyl)piperazin-1-yl)-4-oxobutyl)thiophene-2-carboxamide]"
5,AKT1,"CN(CC(O)CO)C(=O)CCCN(C(=O)c1cccs1)c1nc(-c2cc3ccccc3o2)cs1 (stereo not drawn) [N-(4-(benzofuran-2-yl)thiazol-2-yl)-N-(4-((2,3-dihydroxypropyl)(methyl)amino)-4-oxobutyl)thiophene-2-carboxamide]"
6,AKT1,O=C(CCCN(C(=O)c1cccs1)c1nc(-c2cc3ccccc3o2)cs1)N(CCO)c1ccccc1 [N-(4-(benzofuran-2-yl)thiazol-2-yl)-N-(4-((2-hydroxyethyl)(phenyl)amino)-4-oxobutyl)thiophene-2-carboxamide]
7,AKT1,O=C(CCCN(C(=O)c1cccs1)c1nc(-c2cc3ccccc3o2)cs1)N(CCO)Cc1ccncc1 [N-(4-(benzofuran-2-yl)thiazol-2-yl)-N-(4-((2-hydroxyethyl)(pyridin-4-ylmethyl)amino)-4-oxobutyl)thiophene-2-carboxamide]
8,AKT1,Cc1cnc(CNC(=O)CCCN(C(=O)c2cccs2)c2nc(-c3cc4ccccc4o3)cs2)cn1 [N-(4-(benzofuran-2-yl)thiazol-2-yl)-N-(4-((5-methylpyrazin-2-yl)methylamino)-4-oxobutyl)thiophene-2-carboxamide]
9,AKT1,O=C(c1cccs1)N(CCCC(=O)N(CCCCO)C1CCCCC1)c1nc(-c2cc3ccccc3o2)cs1 [N-(4-(benzofuran-2-yl)thiazol-2-yl)-N-(4-(cyclohexyl(4-hydroxybutyl)amino)-4-oxobutyl)thiophene-2-carboxamide]
10,AKT1,O=C(CCCN(C(=O)c1cccs1)c1nc(-c2cc3ccccc3o2)cs1)N1Cc2ccccc2C1 [N-(4-(benzofuran-2-yl)thiazol-2-yl)-N-(4-(isoindolin-2-yl)-4-oxobutyl)thiophene-2-carboxamide]
11,AKT1,O=C(c1cccs1)N(CCCC(=O)N1CCCC1c1cccnc1)c1nc(-c2cc3ccccc3o2)cs1 (stereo not drawn) [N-(4-(benzofuran-2-yl)thiazol-2-yl)-N-(4-oxo-4-(2-(pyridin-3-yl)pyrrolidin-1-yl)butyl)thiophene-2-carboxamide]
12,AKT1,O=C(CCCN(C(=O)c1cccs1)c1nc(-c2cc3ccccc3o2)cs1)NCCc1ccncc1 [N-(4-(benzofuran-2-yl)thiazol-2-yl)-N-(4-oxo-4-(2-(pyridin-4-yl)ethylamino)butyl)thiophene-2-carboxamide]
13,AKT1,O=C1CN(C(=O)CCCN(C(=O)c2cccs2)c2nc(-c3cc4ccccc4o3)cs2)CCN1 [N-(4-(benzofuran-2-yl)thiazol-2-yl)-N-(4-oxo-4-(3-oxopiperazin-1-yl)butyl)thiophene-2-carboxamide]
14,AKT1,O=C(CCCN(C(=O)c1cccs1)c1nc(-c2cc3ccccc3o2)cs1)NCc1ccccn1 [N-(4-(benzofuran-2-yl)thiazol-2-yl)-N-(4-oxo-4-(pyridin-2-ylmethylamino)butyl)thiophene-2-carboxamide]
15,AKT1,O=C(c1cccs1)N(CCCCCN1CCOCC1)c1nc(-c2cc3ccccc3o2)cs1 [N-(4-(benzofuran-2-yl)thiazol-2-yl)-N-(5-morpholinopentyl)thiophene-2-carboxamide]
16,AKT1,CCCN(C(=O)c1cccs1)c1nc(-c2cc3ccccc3o2)cs1 [N-(4-(benzofuran-2-yl)thiazol-2-yl)-N-propylthiophene-2-carboxamide]
